Reference: PMC2799460 (Environmental Health Perspectives, 2009)
Like-named read-outs stand apart in the source and are kept apart here.

Key:
[1] = biological target: T1, CYP450 2C9 (Homo sapiens, UniProt P11712); assay: biochemical
[2] = biological target: T2, human soluble epoxide hydrolase (sEH) (Homo sapiens, UniProt P34913); assay: human sEH enzyme inhibition assay (CMNPC substrate, fluorescence kinetic); format: biochemical; details: recombinant purified enzyme, CMNPC 5 μM, counterscreen; mean ± SD
T2 construct: made in house; host or cells: baculovirus expression system
T2 sequence (P34913 1-555): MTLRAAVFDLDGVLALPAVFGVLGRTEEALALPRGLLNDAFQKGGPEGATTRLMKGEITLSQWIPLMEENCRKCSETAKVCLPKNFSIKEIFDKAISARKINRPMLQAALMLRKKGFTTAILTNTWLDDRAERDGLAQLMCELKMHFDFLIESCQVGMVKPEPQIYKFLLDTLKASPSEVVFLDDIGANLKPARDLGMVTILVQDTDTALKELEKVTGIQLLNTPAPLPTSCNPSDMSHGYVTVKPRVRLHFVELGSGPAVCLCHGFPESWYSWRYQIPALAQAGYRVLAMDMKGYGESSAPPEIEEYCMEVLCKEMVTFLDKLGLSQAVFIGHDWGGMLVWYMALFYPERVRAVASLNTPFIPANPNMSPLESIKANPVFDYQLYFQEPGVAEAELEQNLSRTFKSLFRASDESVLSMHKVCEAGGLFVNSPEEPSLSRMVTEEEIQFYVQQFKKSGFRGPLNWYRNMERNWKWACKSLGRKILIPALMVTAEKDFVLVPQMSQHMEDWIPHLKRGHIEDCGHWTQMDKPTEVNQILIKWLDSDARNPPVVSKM
Description: (§1) Recombinant human soluble epoxide hydrolase (sEH) was produced in a baculovirus expression system ([Beetham et al. 1993]) and purified by affinity chromatography ([Wixtrom et al. 1988]). […] The CESs were partially purified as previously described ([Nishi et al. 2006]), whereas microsomal preparations were used for FAAH and PON2 ([Huang et al. 2007]). Human liver cytosol and microsome extracts were obtained from BD Biosciences (San Jose, CA). Protein concentration was quantified using the Pierce BCA (bicinchoninic acid) assay (Pierce, Rockford, IL) using bovine serum albumin (BSA) as the calibrating standard.
(§2) Although the conditions for each enzyme assay were different (for details, see Table 1), the enzymatic assays were all run in a similar format. Enzymes were used at a concentration that results in linear generation of product with increasing time and protein concentration, as well as yielding a signal that was 3–20 times greater than the background. […]
(§3) For counterscreening, fresh solutions of all positive compounds were prepared in DMSO. […] IC50 values were calculated by nonlinear regression of at least five data points using SigmaPlot, version 9.01 (Systat Software Inc., Chicago, IL). […] Similarly, half-maximal effective concentration (EC50) values for agonists of the AhR and ER bioassays were determined, and the results are presented as the mean of triplicate analysis. […]

[3] = biological target: T3, human carboxylesterase CES3 (Homo sapiens, UniProt Q6UWW8); assay: human CES3 enzyme inhibition assay (CMNA substrate); format: biochemical
T3 construct: made in house; host or cells: baculovirus-insect cells
T3 sequence (Q6UWW8 27-571): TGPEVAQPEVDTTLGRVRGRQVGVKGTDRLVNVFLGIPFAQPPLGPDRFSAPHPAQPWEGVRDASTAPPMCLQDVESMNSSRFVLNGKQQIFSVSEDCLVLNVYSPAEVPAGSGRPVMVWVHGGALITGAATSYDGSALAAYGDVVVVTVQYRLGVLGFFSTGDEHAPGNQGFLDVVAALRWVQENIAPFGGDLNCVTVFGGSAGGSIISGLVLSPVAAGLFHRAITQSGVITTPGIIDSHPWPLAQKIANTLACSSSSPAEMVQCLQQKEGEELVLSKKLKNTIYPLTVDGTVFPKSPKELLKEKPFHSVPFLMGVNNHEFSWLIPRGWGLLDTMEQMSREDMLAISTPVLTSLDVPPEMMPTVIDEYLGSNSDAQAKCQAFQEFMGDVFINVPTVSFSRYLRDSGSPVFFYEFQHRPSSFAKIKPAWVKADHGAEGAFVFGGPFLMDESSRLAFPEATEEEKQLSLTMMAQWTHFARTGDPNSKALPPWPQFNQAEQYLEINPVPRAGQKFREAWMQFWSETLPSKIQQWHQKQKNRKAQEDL
Description: as §1, §2, §3

[4] = biological target: T4, human carboxylesterase CES1 (Homo sapiens, UniProt P23141); assay: biochemical
T4 construct: made in house; host or cells: baculovirus-insect cells
T4 sequence (P23141 18-567): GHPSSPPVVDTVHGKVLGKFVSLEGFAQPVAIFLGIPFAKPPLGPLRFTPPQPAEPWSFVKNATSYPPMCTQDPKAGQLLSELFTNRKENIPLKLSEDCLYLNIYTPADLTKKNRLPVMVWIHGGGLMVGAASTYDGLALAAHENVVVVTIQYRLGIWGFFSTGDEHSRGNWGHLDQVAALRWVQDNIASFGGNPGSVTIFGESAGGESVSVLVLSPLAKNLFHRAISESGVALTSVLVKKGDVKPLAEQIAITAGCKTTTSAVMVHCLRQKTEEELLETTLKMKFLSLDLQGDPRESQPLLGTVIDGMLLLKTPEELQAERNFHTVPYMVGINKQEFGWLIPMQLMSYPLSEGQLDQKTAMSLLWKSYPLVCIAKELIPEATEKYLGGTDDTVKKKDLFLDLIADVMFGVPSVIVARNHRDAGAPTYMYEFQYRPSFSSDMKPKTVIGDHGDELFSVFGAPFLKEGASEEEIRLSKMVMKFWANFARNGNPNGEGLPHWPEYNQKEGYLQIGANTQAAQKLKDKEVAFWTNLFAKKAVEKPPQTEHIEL

[5] = biological target: T5, aryl hydrocarbon receptor (AhR) (Mus musculus, UniProt P30561); assay: cell-based
T5 sequence (P30561 10-848): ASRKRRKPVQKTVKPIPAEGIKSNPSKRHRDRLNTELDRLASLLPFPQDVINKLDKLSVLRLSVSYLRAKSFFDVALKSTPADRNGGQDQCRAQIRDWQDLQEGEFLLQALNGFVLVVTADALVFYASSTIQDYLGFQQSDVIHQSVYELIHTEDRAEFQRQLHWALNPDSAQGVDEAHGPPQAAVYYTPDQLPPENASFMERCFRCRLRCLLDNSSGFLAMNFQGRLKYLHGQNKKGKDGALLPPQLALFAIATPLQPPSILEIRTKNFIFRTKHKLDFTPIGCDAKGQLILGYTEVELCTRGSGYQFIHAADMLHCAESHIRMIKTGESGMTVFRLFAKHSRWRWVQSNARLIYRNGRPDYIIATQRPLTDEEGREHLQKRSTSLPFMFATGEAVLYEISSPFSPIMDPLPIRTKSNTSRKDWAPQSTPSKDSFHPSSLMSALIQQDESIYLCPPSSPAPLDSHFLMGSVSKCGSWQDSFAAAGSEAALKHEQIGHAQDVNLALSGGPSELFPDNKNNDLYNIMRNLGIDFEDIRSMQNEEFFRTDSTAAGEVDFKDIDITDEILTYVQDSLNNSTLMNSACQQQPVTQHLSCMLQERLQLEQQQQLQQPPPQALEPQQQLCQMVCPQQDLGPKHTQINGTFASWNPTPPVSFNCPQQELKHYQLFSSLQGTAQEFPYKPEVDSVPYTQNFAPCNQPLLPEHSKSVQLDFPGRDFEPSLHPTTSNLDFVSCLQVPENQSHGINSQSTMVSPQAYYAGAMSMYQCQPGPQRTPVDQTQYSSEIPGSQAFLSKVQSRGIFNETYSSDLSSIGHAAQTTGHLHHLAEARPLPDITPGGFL

[6] = biological target: T6, estrogen receptor (ER) (Homo sapiens, UniProt P03372); assay: ER CALUX luciferase reporter bioassay (BG1Luc4E2/ER-α-positive cells); format: cell-based; details: for EC50: agonist, ER CALUX luciferase induction
T6 construct: endogenous in cells; host or cells: BG1Luc4E2 (human ovarian cell line per title of Rogers and Denison 2000)

[7] = biological target: T1, CYP450 2C9

T1 sequence (P11712 whole entry): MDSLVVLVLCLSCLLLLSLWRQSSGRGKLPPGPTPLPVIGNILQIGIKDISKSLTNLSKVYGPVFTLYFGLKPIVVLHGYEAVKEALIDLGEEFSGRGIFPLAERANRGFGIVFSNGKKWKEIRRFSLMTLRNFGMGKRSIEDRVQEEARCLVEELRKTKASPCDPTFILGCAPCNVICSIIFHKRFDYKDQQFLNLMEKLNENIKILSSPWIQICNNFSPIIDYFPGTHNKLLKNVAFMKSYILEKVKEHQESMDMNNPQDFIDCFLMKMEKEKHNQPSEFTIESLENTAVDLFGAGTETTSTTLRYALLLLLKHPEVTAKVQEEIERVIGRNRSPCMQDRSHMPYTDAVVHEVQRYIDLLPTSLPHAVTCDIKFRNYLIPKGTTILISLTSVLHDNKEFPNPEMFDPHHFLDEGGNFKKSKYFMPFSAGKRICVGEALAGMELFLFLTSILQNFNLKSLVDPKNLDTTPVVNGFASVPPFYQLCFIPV
T6 sequence (P03372 whole entry): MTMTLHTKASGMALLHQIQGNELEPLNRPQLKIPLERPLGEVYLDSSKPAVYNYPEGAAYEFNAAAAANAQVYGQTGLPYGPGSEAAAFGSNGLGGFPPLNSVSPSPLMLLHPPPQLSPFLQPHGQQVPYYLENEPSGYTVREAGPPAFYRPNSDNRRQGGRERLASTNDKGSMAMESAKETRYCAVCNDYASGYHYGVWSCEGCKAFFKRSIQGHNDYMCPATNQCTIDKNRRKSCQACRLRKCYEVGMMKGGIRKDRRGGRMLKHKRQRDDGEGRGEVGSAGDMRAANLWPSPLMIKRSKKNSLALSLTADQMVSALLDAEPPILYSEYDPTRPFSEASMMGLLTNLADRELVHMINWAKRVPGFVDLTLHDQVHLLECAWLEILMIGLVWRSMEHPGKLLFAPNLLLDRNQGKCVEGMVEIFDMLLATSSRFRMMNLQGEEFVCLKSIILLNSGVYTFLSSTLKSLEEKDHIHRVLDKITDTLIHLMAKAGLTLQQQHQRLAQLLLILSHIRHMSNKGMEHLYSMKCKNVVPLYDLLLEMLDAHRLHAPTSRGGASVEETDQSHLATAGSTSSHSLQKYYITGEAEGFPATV

## CCOP(=S)(OCC)Oc1nc(Cl)c(Cl)cc1Cl [Chlorpyrifos, chlorpyrifos]
[1]
  IC50: 3.2 µM

## O=C(Nc1ccc(Cl)cc1)Nc1ccc(Cl)c(Cl)c1 [TCC, trichlorocarbanilide]
[2]
  IC50: 0.013 ± 0.001 µM

## CCOP(=S)(OCC)SCSc1ccc(Cl)cc1 [Carbophenothion, carbophenothion]
[3]
  IC50: 0.11 ± 0.015 µM

## CCOP(=S)(OCC)Oc1ccc([N+](=O)[O-])cc1 [Parathion, parathion]
[3]
  IC50: 0.0049 ± 0.0004 µM

## O=P(Oc1ccccc1)(Oc1ccccc1)Oc1ccccc1 [TPP, triphenyl phosphate]
[4]
  IC50: 0.043 ± 0.003 µM

## Clc1ccc(-c2nc3ccccc3s2)cc1 [CPB, 2-(4-chlorophenyl)-benzothiazole]
[5]
  EC50: 11.4 µM

## Oc1cc(Cl)ccc1Oc1ccc(Cl)cc1Cl [Triclosan, triclosan]
[4]
  IC50: 0.21 ± 0.02 µM
  Ki: 0.105 ± 0.005 µM

## O=C1C(Cl)=C(Cl)C(=O)c2ccccc21 [Dichlone, dichlone]
[5]
  EC50: > 10 µM

## ClC1=C(Cl)C2(Cl)C3C4CC(C5OC45)C3C1(Cl)C2(Cl)Cl (stereo not drawn) [Endrin]
[6]
  EC50: 13 µM

## C/C=C/C(=O)Oc1c(C(C)CCCCCC)cc([N+](=O)[O-])cc1[N+](=O)[O-] (stereo not drawn) [2-Methylheptyl-4,6-dinitrophenyl crotonate]
[7]
  IC50: 0.12 ± 0.001 µM

## ClC(Cl)=C(c1ccc(Cl)cc1)c1ccccc1Cl [o,p-DDE, dichlorodiphenyldichloroethylene]
[6]
  EC50: 1.2 µM
[6]; relative to E2
  EC50 for ER induction, fold less potent than E2: approximately 10^5 fold

## CC1CCCCC1NC(=O)Nc1ccccc1 (stereo not drawn) [Siduron, siduron]
[2]
  IC50: 0.033 ± 0.003 µM

## Pyrethrum
[7]
  IC50: 2.3 µM
